Results taken from publication PMC5824918, “HMG-CoA reductase from Camphor Tulsi (Ocimum kilimandscharicum) regulated MVA dependent biosynthesis of diverse terpenoids in homologous and heterologous plant systems” (Scientific Reports, 2018).

Tested on: T1, OkHMGR
T1 construct: gene HMGR; cDNA from leaf
Assay: spectrophotometric NADPH oxidation at […] nm, Lineweaver-Burk plot
Format: biochemical, Ocimum kilimandscharicum
Conditions: 7.5 mM DTT, 150 mM potassium phosphate pH 7.0, 30 °C

Km (co-substrate HMG-CoA (0.05 mM in standard assay))	Km (co-substrate NADPH (3.0 mM in standard assay))	SMILES
903 µM	–	NC(=O)C1=CN([C@@H]2O[C@H](COP(=O)(O)OP(=O)(O)OC[C@H]3O[C@@H](n4cnc5c(N)ncnc54)[C@H](OP(=O)(O)O)[C@@H]3O)[C@@H](O)[C@H]2O)C=CC1 [NADPH]
–	88 µM	CC(C)(COP(=O)(O)OP(=O)(O)OC[C@H]1O[C@@H](n2cnc3c(N)ncnc32)[C@H](O)[C@@H]1OP(=O)(O)O)[C@@H](O)C(=O)NCCC(=O)NCCSC(=O)C[C@@](C)(O)CC(=O)O [HMG-CoA]
